Results from article PMC6576746, “Rational discovery of dual-indication multi-target PDE/Kinase inhibitor for precision anti-cancer therapy using structural systems pharmacology” (PLoS Computational Biology, 2019).

Key:
Experiment in all cases: cells
Design in all cases: species or system panel of human cancer cell lines; Eurofins OncoPanel proliferation; nuclei count by high-content fluorescence imaging, 10-point dose response
[1] = tested on: C32TG; details: C32TG, 72 h, cell count, 3 days
Procedure, shortened: (§1)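 Cells in RPMI 1640/10% FBS or special medium received compound the day after seeding, with a time-zero plate; 3-day incubation at 37°C, 5% CO2. Nuclei imaged by fluorescence microscopy; 10 half-log doses from 100 μM, 0.1% DMSO. EC50, IC50, GI50 and activity area (0–10) from curve fits.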

[2] = tested on: A431; details: Homo sapiens, A-431, 72 h, cell count, 3 days
Procedure, shortened: as §1

[3] = tested on: SU-DHL-8; details: Homo sapiens, SU-DHL-8, 72 h, cell count, 3 days
Procedure, shortened: as §1

[4] = tested on: HuCCT1; details: Homo sapiens, HuCCT-1, 72 h, cell count, 3 days
Procedure, shortened: as §1

[5] = tested on: Hs 821.T; details: 72 h, cell count, 3 days
Procedure, shortened: as §1

[6] = tested on: Colo 201; details: Homo sapiens, COLO 201, 72 h, cell count, 3 days
Procedure, shortened: as §1

[7] = tested on: Daudi; details: Homo sapiens, Daudi, 72 h, cell count, 3 days
Procedure, shortened: as §1

[8] = tested on: KHOS-240S; details: KHOS-240S, 72 h, cell count, 3 days
Procedure, shortened: as §1

[9] = tested on: A101D; details: Homo sapiens, A101D, 72 h, cell count, 3 days
Procedure, shortened: as §1

[10] = tested on: SW954; details: Homo sapiens, SW 954, 72 h, cell count, 3 days
Procedure, shortened: as §1

[11] = tested on: SW982; details: Homo sapiens, SW982, 72 h, cell count, 3 days
Procedure, shortened: as §1

[12] = tested on: MOLT-3; details: Homo sapiens, MOLT-3, 72 h, cell count, 3 days
Procedure, shortened: as §1

[13] = tested on: NAMALWA; details: 72 h, cell count, 3 days
Procedure, shortened: as §1

[14] = tested on: A375; details: Homo sapiens, A-375, 72 h, cell count, 3 days
Procedure, shortened: as §1

[15] = 50% of maximum possible response

C[C@@H]1CC(=O)NN=C1c1ccc(NN=C(C#N)C#N)cc1 [levosimendan]
IC50 [1, 15]: 36.9 µM | GI50 ([1]; corrected for time zero): 23.4 µM | EC50 ([1]; curve inflection point): 36.9 µM | IC50 [2, 15]: 44.9 µM | GI50 ([2]; corrected for time zero): 42.8 µM | EC50 ([2]; curve inflection point): 44.9 µM | IC50 [3, 15]: 0.604 µM | GI50 ([3]; corrected for time zero): 0.512 µM | EC50 ([3]; curve inflection point): 0.604 µM | IC50 [4, 15]: 27.5 µM | GI50 ([4]; corrected for time zero): 24.8 µM | EC50 ([4]; curve inflection point): 25.4 µM | IC50 [5, 15]: > 100 µM | GI50 ([5]; corrected for time zero): > 100 µM | EC50 ([5]; curve inflection point): > 100 µM | IC50 [6, 15]: 68.3 µM | GI50 ([6]; corrected for time zero): 53.8 µM | EC50 ([6]; curve inflection point): 68.3 µM | IC50 [7, 15]: 16.3 µM | GI50 ([7]; corrected for time zero): 14.2 µM | EC50 ([7]; curve inflection point): 15.3 µM | IC50 [8, 15]: 16.9 µM | GI50 ([8]; corrected for time zero): 13.5 µM | EC50 ([8]; curve inflection point): 16.9 µM | IC50 [9, 15]: 34.8 µM | GI50 ([9]; corrected for time zero): 26.6 µM | EC50 ([9]; curve inflection point): 34.8 µM | IC50 [10, 15]: 22.5 µM | GI50 ([10]; corrected for time zero): 20.5 µM | EC50 ([10]; curve inflection point): 22 µM | IC50 [11, 15]: 43.7 µM | GI50 ([11]; corrected for time zero): 31.3 µM | EC50 ([11]; curve inflection point): 43.7 µM | IC50 [12, 15]: 32.4 µM | GI50 ([12]; corrected for time zero): 19.9 µM | EC50 ([12]; curve inflection point): 30.5 µM | IC50 [13, 15]: 12.5 µM | GI50 ([13]; corrected for time zero): 11.3 µM | EC50 ([13]; curve inflection point): 12.5 µM | IC50 [14, 15]: 9.47 µM | GI50 ([14]; corrected for time zero): 9 µM | EC50 ([14]; curve inflection point): 9.47 µM
